In ChEMBL document CHEMBL4418269, “Novel Quinoline-Hepcidine Antagonists” (2012) one finds inhibition data, which are given here for 6 compounds.

For the experiment, the target named is T1, Hepcidin (Homo sapiens) (UniProt P81172).
T1 sequence (whole entry): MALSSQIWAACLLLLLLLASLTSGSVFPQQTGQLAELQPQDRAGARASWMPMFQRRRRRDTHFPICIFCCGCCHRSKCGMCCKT
The experiment in a line: Inhibition of human hepcidin-stimulated recombinant C-terminal Halo-tagged human FPN internalization in MDCK cells at 10 uM incubated for 15 to 20 mins by Halo-tagged TMR based fluorescence assay relative to control. In kind it is cell-based.
Usually inhibition stands for how much of the control response was suppressed. For `Oc1c(C(Nc2ccccn2)c2cccnc2)cc(Cl)c2cccnc12` (stereo unspecified), the inhibition is less than 50%.
With `COc1cc(C(=O)Oc2c(CN3CCOCC3)cc(Cl)c3cccnc23)cc(OC)c1OC`, the inhibition is less than 50%.
Consider `Oc1c(C(c2ccccn2)N2CCOCC2)ccc2cccnc12` (stereo unspecified), for which the inhibition is greater than 50%.
In the case of `O=C(Oc1c(CN2CCOCC2)cc(Cl)c2cccnc12)c1ccccc1` it was less than 50%; in that of `Oc1c(C(c2ccc(Cl)cc2)N2CCOCC2)cc(Cl)c2cccnc12` (stereo unspecified), less than 50%; in that of `O=C(Oc1c(CN2CCOCC2)cc(Cl)c2cccnc12)c1ccco1`, less than 50%.
